Measurements reported in patent US20050101673A1, “Use of orally available prostacyclin derivatives for the production of a pharmaceutical agent for treating diseases that are associated with bone marrow edemas” (Schering AG, priority 2002, published 2005).

Columns and labels:
[1] = tested on: patients with painful bone marrow edema; assay: 28-day treatment of patients with painful bone marrow edema (summary statements); format: in vivo, human; conditions: 28-day oral treatment; for pain and articulation: follow-up two months after end of treatment
Text: Treatment with orally available prostacyclin derivatives, especially with cyclodextrin clathrates of the prostacyclin derivatives of formula I, thus represents a novel therapy that not only suppresses the symptoms, i.e., the pain, but combats the causes of osteonecrosis and osteoarthritis and for the first time can also be clinical, studied independently.
The β-cyclodextrin clathrate of iloprost, (5- {(1S,5S,6R,7R)-7-hydroxy-6-[(E)-(3R,4RS)-3-hydroxy-4-methyl-oct-1-en-6-inyl]-bicyclo[3.3.0]octane-3-ylidene}pentanoic acid)-β-cyclodextrin clathrate, is especially suitable.

[2] = tested on: patients with osteonecrosis or osteoarthritis of the knee; assay: Random, double-blind comparison study of oral iloprost versus Tramadol; format: in vivo, human
Method: To confirm the action of oral iloprost on the bone marrow edema and the pain, a random, double-blind comparison study was performed on the opiate Tramadol® in 41 patients with osteonecrosis or osteoarthritis of the knee in the period from March 2001 to November 2002 according to the GCP guidelines.
Patients of both sexes with resting pain because of an osteonecrosis or osteoarthritis were included in the study if the following criteria were met: • Age between 19 and 60 years, • Bone marrow edema found by means of MRT according to specified criteria.
The treatment was carried out either with iloprost capsules or with outwardly indistinguishable Tramadol capsules that were packaged and characterized according to valid GLP rules. Each capsule contained either 50 μg of iloprost or 50 mg of Tramadol®.
During the first three days of treatment, the study medication was administered in a dosage of 3×1 capsules during the day, which starting on day 4 could be increased individually to increase the success of the therapy (alleviation of pain) up to a maximum dose of 3×2 capsules during the day. In the case of poor tolerance, the dosage could always be reduced to a minimum dose of 2×1 capsules during the day.
The treatment period was one month, followed by a follow-up observation period of two months during which no treatment was given. Previously administered pain-relieving medications should be discontinued before the beginning of the study.
The clinical action of the treatment was determined based on the following parameters: • Evaluation of the intensity of the resting pain and the activity-related pain by the patient based on a 100 mm scale, whereby 0 means “no pain,” and 100 means “intolerable pain.” • Evaluation of the functional condition of the knee by means of Larson scores. • Evaluation of the bone marrow edema by means of MRT.

[3] = tested on: osteonecrosis; conditions: five-day intravenous infusion; cited from earlier work
[4] = listed as iloprost β-cyclodextrin clathrate
[5] = listed as β-cyclodextrin clathrate of iloprost
[6] = after 28 days of treatment, persists 2 months without therapy

CC#CCC(C)[C@H](O)/C=C/[C@@H]1[C@H]2C/C(=C/CCCC(=O)O)C[C@H]2C[C@H]1O (stereo partly drawn) [oral iloprost, (5-{(1S,5S,6R,7R)-7-hydroxy-6-[(E)-(3R,4RS)-3-hydroxy-4-methyl-oct-1-en-6-inyl]-bicyclo[3.3.0]octane-3-ylidene}pentanoic acid)-β-cyclodextrin clathrate]
pain and articulation [1, 4]: alleviation of pain and the improved articulation could be observed even two months after the end of treatment
pain and articulation [1, 5]: significant improvement of the pain
bone marrow edema [1, 4]: reduced not only the bone marrow edema
structural integrity of the bone, necrotic areas and lesions [1, 4]: restored the structural integrity
bone marrow edema [1, 5]: significant reduction of the bone marrow edema
structural integrity of the bone, necrotic areas and lesions [1, 5]: healing of necroses

COc1cccc(C2(O)CCCCC2CN(C)C)c1 (centres unmarked) [Tramadol®, reference compound]
activity-related pain, 100 mm visual analog scale [2, 6]: considerable reduction in pain
resting pain, 100 mm visual analog scale [2, 6]: Almost complete freedom from pain
knee activity score according to Larson (maximum score 100) ([2]; improvement persists 2 months without therapy): pronounced increase
patients with complete degeneration of the bone marrow edema in at least one affected bone ([2]; one month treatment, MRT): 19%

CC#CCC(C)[C@H](O)/C=C/[C@@H]1[C@H]2C/C(=C/CCCC(=O)O)C[C@H]2C[C@H]1O.NC(CO)(CO)CO (some centres unmarked) [Ilomedin®, iloprost-trometamol]
pain in osteonecrosis [3]: alleviation of pain in osteonecrosis can be achieved
